Measured values: patent US20070117770A1, “Human ribosomal DNA (rDNA) and ribosomal RNA (rRNA) nucleic acids and uses thereof” (Cylene Pharmaceuticals, Inc., priority 2005, published 2007)

Key:
Test in all cases: Protein kinase inhibition assay
Assay type in all cases: biochemical
[1] = target: Fgr(h) (Homo sapiens, UniProt P09769); settings: read-out: percent residual activity of Fgr(h)
Description: (§1) Certain compounds were tested for activity in protein kinase inhibition assays. All substrates were dissolved and diluted to working stocks in de-ionized water, apart from histone H1 (10× working stock in 20 mM MOPS pH 7.0), PDKtide (10× working stock in 50 mM Tris pH 7.0) ATF2 (which is typically stored at a 20× working stock in 50 mM Tris pH 7.5, 150 mM NaCl, 0.1 mM EGTA, 0.03% Brij-35, 50% glycerol, 1 mM benzamidine, 0.2 mM PMSF and 0.1% R-mercaptoethanol), KKLNRTLSFAEPG (SEQ ID NO:203) and RRRLSFAEPG (SEQ ID NO:204) (50 mM HEPES pH 7.4) and GGEEEEYFELVKKKK (SEQ ID NO:205) (20 mM MOPS pH 7.0). All kinases were pre-diluted to a 10× working concentration prior to addition into the assay. The composition of the dilution buffer for each kinase is detailed below.
In a final reaction volume of 25 μl, Fgr (h) (5-10 mU) is incubated with 8 mM MOPS pH 7.0, 0.2 mM EDTA, 0.1 mg/ml poly(Glu, Tyr) 4:1, 10 mM MgAcetate and [gamma-33P-ATP] (specific activity approx. 500 cpm/pmol, concentration as required). The reaction is initiated by the addition of the MgATP mix. After incubation for 40 minutes at room temperature, the reaction is stopped by the addition of 5 μl of a 3% phosphoric acid solution. 10 μl of the reaction is then spotted onto a Filtermat A and washed three times for 5 minutes in 75 mM phosphoric acid and once in methanol prior to drying and scintillation counting.

[2] = target: IGF-1R(h) (Homo sapiens, UniProt P08069); settings: read-out: percent residual activity of IGF-1R(h)
Chain of IGF-1R(h) (P08069 31-1367): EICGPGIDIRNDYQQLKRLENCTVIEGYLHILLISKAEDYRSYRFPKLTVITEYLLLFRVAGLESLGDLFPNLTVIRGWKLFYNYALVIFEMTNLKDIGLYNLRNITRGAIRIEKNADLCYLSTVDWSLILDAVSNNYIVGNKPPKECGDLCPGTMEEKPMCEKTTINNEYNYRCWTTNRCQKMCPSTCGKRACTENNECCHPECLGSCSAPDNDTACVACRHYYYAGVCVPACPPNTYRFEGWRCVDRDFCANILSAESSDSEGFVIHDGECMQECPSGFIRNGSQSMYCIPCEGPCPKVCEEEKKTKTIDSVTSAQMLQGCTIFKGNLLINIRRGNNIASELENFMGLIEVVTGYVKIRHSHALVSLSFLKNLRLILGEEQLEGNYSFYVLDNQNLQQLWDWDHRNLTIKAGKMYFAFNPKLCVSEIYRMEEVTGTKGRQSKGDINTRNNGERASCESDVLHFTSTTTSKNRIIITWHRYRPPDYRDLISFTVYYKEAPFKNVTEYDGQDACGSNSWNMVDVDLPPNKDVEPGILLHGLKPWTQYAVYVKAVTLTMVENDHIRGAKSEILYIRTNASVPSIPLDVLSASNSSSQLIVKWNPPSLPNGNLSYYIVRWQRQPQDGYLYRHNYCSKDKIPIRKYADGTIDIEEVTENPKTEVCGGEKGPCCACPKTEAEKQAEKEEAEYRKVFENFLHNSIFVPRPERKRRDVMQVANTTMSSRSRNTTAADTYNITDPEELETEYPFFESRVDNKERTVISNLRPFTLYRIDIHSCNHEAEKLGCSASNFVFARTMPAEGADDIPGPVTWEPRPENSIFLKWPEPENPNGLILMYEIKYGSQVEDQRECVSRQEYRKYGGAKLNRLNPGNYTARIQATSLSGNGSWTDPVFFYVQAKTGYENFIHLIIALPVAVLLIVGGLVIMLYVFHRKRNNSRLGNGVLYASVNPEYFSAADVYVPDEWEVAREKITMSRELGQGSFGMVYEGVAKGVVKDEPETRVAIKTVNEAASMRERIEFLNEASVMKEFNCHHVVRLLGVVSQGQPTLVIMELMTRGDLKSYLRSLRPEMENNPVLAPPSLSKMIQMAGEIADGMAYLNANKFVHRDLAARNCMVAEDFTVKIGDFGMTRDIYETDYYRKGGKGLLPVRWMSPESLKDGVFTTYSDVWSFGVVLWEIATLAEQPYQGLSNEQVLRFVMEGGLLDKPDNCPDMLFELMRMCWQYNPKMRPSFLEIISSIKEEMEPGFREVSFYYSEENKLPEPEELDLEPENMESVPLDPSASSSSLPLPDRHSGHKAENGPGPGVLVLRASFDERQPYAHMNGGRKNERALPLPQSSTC
Description: as §1
(§2) In a final reaction volume of 25 μl, IGF-1R (h) (5-10 mU) is incubated with 50 mM Tris pH 7.5, 0.1 mM EGTA, 0.1 mM Na3VO4, 0.1% R-mercaptoethanol, 250 μM KKKSPGEYVNIEFG (SEQ ID NO:207), 10 mM MnCl2, 10 mM MgAcetate and [gamma-33P-ATP] (specific activity approx. 500 cpm/pmol, concentration as required). The reaction is initiated by the addition of the MgATP mix. After incubation for 40 minutes at room temperature, the reaction is stopped by the addition of 5 μl of a 3% phosphoric acid solution. […]

[3] = target: IR(h) (Homo sapiens, UniProt P06213); settings: read-out: percent residual activity of IR(h)
Chain of IR(h) (P06213 28-1382): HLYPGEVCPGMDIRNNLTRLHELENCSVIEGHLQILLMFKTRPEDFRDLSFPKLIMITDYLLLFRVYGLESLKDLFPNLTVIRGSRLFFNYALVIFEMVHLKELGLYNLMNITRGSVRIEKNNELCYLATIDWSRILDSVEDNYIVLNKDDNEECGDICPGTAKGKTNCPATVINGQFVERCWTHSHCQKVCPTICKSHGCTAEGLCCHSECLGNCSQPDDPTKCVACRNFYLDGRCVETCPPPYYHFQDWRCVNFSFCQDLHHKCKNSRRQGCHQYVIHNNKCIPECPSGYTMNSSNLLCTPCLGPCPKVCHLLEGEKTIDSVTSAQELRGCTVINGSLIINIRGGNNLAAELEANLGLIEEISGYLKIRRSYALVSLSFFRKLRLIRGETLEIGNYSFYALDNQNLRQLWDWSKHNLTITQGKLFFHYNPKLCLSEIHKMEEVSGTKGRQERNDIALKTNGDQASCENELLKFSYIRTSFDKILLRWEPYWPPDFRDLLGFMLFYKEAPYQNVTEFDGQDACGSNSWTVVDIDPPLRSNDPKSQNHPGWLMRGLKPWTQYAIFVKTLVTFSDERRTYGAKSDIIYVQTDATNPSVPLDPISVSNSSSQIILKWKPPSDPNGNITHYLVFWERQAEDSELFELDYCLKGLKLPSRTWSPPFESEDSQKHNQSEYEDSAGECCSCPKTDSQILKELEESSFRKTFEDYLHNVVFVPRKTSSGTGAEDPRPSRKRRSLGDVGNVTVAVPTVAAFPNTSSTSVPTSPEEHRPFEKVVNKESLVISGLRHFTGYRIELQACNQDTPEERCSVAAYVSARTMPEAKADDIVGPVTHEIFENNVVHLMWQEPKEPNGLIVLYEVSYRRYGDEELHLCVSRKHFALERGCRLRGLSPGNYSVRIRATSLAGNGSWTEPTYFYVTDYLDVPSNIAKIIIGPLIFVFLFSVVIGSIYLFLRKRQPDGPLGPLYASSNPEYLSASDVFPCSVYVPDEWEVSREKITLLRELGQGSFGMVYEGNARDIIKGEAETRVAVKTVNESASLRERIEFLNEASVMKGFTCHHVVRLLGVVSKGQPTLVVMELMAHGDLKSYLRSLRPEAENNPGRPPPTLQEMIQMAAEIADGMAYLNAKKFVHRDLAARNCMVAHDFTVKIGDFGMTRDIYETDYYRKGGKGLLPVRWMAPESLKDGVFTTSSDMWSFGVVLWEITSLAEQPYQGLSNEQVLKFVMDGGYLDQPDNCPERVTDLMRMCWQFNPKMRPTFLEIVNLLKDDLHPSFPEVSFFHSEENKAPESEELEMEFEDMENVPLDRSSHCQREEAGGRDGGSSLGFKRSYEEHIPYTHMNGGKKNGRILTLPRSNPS
Description: as §1
as §2, with “IR” for “IGF-1R”, “KKSRGDYMTMQIG” for “KKKSPGEYVNIEFG”, “NO:210),” for “NO:207),”

[4] = target: Lyn(h) (Homo sapiens, UniProt P07948); settings: read-out: percent residual activity of Lyn(h)
Chain of Lyn(h) (P07948 whole entry): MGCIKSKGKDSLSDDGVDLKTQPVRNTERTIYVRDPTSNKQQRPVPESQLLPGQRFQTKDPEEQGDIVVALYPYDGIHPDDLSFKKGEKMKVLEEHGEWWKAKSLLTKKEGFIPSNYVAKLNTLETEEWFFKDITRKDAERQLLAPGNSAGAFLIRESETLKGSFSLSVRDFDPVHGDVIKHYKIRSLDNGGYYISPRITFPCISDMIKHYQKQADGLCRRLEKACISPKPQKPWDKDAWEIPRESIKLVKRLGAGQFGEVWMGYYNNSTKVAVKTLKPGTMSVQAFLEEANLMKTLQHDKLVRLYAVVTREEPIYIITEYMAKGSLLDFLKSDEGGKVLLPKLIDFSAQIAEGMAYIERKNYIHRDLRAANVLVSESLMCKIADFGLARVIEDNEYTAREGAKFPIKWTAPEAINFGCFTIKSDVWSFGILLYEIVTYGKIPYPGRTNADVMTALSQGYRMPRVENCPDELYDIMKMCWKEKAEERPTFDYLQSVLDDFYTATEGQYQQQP
Description: as §1
as §2, with “Lyn” for “IGF-1R”, “0.1 mg/ml poly(Glu, Tyr) 4:1,” for “250 μM KKKSPGEYVNIEFG (SEQ ID NO:207), 10 mM MnCl2,”

[5] = target: Rse(h) (Homo sapiens, UniProt Q06418); settings: read-out: percent residual activity of Rse(h)
Chain of Rse(h) (Q06418 41-890): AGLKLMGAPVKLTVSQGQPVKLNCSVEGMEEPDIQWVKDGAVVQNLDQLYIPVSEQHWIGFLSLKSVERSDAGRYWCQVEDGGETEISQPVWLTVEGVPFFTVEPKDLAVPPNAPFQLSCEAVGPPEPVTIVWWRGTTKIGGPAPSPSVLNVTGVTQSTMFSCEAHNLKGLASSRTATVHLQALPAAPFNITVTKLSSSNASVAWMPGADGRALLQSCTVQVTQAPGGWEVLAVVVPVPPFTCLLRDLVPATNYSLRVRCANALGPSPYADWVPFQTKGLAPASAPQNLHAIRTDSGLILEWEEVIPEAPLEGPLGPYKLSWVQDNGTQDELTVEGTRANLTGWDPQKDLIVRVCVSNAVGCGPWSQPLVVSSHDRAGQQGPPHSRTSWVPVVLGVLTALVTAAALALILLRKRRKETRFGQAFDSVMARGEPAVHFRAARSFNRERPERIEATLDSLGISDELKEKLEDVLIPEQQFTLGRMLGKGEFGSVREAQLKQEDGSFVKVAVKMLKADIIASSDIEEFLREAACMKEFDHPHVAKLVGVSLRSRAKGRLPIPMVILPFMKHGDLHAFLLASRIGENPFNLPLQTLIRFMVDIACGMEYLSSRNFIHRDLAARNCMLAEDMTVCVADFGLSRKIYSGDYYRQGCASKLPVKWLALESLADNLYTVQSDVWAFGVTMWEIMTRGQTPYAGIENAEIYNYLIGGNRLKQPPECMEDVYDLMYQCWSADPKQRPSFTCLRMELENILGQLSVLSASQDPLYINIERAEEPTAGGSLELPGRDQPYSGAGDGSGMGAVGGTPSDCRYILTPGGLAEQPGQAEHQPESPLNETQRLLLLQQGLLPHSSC
Description: as §1
In a final reaction volume of 25 μl, Rse (h) (5-10 mU) is incubated with 8 mM MOPS pH 7.0, 0.2 mM EDTA, 250 μM KVEKIGEGTYGVVYK (SEQ ID NO:211), 1 mM MnCl2, 10 mM MgAcetate and [gamma-33P-ATP] (specific activity approx. 500 cpm/pmol, concentration as required). The reaction is initiated by the addition of the MgATP mix. After incubation for 40 minutes at room temperature, the reaction is stopped by the addition of 5 μl of a 3% phosphoric acid solution. […]

[6] = target: SAPK3(h) (Homo sapiens, UniProt P53778); settings: read-out: percent residual activity of SAPK3(h)
Chain of SAPK3(h) (P53778 whole entry): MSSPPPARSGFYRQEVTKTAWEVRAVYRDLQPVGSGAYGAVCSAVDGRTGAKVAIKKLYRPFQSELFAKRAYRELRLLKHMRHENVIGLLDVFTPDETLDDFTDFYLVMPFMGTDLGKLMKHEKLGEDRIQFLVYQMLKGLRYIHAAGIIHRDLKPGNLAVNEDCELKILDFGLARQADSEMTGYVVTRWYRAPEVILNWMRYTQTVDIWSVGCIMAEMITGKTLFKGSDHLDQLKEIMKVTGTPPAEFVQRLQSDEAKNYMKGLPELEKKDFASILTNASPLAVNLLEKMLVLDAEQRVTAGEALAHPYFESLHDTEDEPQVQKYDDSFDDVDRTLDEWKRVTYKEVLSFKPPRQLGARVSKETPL
Description: as §1
In a final reaction volume of 25 μl, SAPK3 (h) (5-10 mU) is incubated with 25 mM Tris pH 7.5, 0.02 mM EGTA, 0.33 mg/ml myelin basic protein, 10 mM MgAcetate and [gamma-33P-ATP] (specific activity approx. 500 cpm/pmol, concentration as required). The reaction is initiated by the addition of the MgATP mix. After incubation for 40 minutes at room temperature, the reaction is stopped by the addition of 5 μl of a 3% phosphoric acid solution. 10 μl of the reaction is then spotted onto a P30 filtermat and washed three times for 5 minutes in 75 mM phosphoric acid and once in methanol prior to drying and scintillation counting.

Chain of Fgr(h) (P09769 whole entry): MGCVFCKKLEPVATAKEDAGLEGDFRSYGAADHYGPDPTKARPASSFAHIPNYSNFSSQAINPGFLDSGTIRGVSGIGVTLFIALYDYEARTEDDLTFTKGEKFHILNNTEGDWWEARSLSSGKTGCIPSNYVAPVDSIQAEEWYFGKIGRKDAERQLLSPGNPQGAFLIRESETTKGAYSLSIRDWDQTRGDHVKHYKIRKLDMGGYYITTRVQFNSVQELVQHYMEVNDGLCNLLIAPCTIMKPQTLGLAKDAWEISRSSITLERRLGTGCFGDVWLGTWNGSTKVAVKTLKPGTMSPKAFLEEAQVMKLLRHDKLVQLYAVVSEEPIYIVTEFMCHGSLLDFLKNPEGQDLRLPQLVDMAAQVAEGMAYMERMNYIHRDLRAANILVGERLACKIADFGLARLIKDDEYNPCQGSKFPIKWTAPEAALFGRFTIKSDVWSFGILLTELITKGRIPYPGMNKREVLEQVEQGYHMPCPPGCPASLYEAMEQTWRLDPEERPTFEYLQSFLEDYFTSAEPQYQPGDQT

remaining activity at 2.5 µM [1] [%]	remaining activity at 2.5 µM [2] [%]	remaining activity at 2.5 µM [3] [%]	remaining activity at 2.5 µM [4] [%]	remaining activity at 2.5 µM [5] [%]	remaining activity at 2.5 µM [6] [%]	SMILES
78	103	96	110	92	85	CN1CCCC1CCNC(=O)c1cn2c3c(c(N4CCC(c5cnccn5)C4)c(F)cc3c1=O)Oc1cc3ccccc3cc1-2 (stereo not drawn) [Compound A-1]
98	113	110	122	92	111	CC(=O)N1CCN(c2ccc3c(=O)c(C(=O)NCCN4CCCC4)c4n(C)c5ccccc5n4c3n2)CC1 [Compound B-1]
